Experimental data as given in the kinase profiling compilation of Christmann-Franck et al. (2016).

Assays:
Test in all cases: radiometric filter-binding kinase assay, Kinase HotSpot
Conditions in all cases: compound 0.5 µM; ATP 10 µM
STK11 (human) = STK11 (human) (UniProt Q15831)
HCK (human) = HCK (human) (UniProt P08631)
TSSK2 (human) = TSSK2 (human) (UniProt Q96PF2)
STK10 (human) = STK10 (human) (UniProt O94804)
PRKCB2 (human) = PRKCB2 (human) (UniProt P05771)
TAOK3 (human) = TAOK3 (human) (UniProt Q9H2K8)
STK3 (human) = STK3 (human) (UniProt Q13188)
AKT2 (human) = AKT2 (human) (UniProt P31751)
AKT2 (human), sequence (P31751 whole entry, looked up): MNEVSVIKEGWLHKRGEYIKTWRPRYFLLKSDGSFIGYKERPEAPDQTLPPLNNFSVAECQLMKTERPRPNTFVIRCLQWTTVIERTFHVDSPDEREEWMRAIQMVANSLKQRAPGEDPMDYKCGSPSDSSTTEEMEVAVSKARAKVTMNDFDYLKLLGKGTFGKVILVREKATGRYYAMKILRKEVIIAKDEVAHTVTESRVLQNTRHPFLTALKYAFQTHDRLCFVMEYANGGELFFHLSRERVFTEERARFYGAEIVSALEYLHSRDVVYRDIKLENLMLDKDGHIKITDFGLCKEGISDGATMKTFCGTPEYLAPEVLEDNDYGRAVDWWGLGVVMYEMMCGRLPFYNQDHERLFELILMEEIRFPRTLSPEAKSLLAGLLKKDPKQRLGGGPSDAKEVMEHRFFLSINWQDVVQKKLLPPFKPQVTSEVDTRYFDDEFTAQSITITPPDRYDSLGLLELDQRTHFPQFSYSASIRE

CLK1 (human) = CLK1 (human) (UniProt P49759)
SYK (human) = SYK (human) (UniProt P43405)
DAPK2 (human) = DAPK2 (human) (UniProt Q9UIK4)
PRKX (human) = PRKX (human) (UniProt P51817)
TGFBR2 (human) = TGFBR2 (human) (UniProt P37173)
TGFBR1 (human) = TGFBR1 (human) (UniProt P36897)
TGFBR1 (human), sequence (P36897 whole entry, looked up): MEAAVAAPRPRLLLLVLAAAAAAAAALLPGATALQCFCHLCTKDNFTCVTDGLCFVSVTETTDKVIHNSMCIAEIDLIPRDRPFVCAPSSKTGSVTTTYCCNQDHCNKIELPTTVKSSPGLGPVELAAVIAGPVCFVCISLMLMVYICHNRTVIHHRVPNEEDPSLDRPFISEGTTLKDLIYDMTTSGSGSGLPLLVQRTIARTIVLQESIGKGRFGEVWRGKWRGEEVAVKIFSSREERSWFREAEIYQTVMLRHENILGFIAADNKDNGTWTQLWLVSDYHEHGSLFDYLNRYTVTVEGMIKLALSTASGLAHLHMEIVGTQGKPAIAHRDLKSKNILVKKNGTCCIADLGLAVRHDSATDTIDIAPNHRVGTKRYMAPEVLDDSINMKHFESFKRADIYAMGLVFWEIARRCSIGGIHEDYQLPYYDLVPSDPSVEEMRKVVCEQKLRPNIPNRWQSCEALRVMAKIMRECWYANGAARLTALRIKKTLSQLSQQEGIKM

MKNK2 (human) = MKNK2 (human) (UniProt Q9HBH9)
CHEK1 (human) = CHEK1 (human) (UniProt O14757)
INSRR (human) = INSRR (human) (UniProt P14616)
PRKACA (human) = PRKACA (human) (UniProt P17612)
CAMK2A (human) = CAMK2A (human) (UniProt Q9UQM7)
IKBKB (human) = IKBKB (human) (UniProt O14920)
ROCK1 (human) = ROCK1 (human) (UniProt Q13464)
CDK4 CCND1 (human) = CDK4 CCND1 (human) (UniProt P24385+P11802)
IRAK4 (human) = IRAK4 (human) (UniProt Q9NWZ3)
CAMK2B (human) = CAMK2B (human) (UniProt Q13554)
CAMK2B (human), sequence (Q13554 whole entry, looked up): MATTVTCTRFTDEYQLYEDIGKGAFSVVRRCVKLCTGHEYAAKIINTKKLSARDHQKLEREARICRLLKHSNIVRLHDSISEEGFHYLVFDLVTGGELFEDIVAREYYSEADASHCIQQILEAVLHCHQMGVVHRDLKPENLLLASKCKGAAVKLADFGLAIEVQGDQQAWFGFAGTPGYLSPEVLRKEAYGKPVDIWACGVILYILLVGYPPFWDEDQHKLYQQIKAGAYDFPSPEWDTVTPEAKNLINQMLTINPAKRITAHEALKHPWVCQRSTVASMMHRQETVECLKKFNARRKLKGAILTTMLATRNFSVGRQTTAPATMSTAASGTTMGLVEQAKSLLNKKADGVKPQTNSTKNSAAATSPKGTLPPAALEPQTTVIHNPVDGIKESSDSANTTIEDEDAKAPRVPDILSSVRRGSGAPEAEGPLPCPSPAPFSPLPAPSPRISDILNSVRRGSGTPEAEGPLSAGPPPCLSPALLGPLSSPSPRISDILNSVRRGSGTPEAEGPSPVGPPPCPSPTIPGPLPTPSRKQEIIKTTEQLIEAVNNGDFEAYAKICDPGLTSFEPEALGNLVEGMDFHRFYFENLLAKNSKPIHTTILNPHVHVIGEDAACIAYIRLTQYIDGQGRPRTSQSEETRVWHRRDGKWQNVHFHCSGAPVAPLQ

CAMK1G (human) = CAMK1G (human) (UniProt Q96NX5)
CAMK1G (human), sequence (Q96NX5 whole entry, looked up): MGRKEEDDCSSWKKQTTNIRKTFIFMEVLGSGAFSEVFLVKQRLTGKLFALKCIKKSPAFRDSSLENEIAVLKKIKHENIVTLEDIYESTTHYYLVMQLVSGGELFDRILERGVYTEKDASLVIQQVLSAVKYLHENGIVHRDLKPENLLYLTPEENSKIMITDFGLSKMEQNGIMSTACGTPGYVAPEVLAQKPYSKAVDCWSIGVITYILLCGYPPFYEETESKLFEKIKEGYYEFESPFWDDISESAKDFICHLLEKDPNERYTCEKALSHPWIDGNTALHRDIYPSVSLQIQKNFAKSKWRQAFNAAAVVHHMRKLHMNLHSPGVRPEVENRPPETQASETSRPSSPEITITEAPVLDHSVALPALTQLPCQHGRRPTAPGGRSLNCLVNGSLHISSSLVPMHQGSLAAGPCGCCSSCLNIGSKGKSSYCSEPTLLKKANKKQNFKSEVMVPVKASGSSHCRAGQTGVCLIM

CAMK2D (human) = CAMK2D (human) (UniProt Q13557)
PRKCA (human) = PRKCA (human) (UniProt P17252)
DAPK1 (human) = DAPK1 (human) (UniProt P53355)
DAPK1 (human), sequence (P53355 whole entry, looked up): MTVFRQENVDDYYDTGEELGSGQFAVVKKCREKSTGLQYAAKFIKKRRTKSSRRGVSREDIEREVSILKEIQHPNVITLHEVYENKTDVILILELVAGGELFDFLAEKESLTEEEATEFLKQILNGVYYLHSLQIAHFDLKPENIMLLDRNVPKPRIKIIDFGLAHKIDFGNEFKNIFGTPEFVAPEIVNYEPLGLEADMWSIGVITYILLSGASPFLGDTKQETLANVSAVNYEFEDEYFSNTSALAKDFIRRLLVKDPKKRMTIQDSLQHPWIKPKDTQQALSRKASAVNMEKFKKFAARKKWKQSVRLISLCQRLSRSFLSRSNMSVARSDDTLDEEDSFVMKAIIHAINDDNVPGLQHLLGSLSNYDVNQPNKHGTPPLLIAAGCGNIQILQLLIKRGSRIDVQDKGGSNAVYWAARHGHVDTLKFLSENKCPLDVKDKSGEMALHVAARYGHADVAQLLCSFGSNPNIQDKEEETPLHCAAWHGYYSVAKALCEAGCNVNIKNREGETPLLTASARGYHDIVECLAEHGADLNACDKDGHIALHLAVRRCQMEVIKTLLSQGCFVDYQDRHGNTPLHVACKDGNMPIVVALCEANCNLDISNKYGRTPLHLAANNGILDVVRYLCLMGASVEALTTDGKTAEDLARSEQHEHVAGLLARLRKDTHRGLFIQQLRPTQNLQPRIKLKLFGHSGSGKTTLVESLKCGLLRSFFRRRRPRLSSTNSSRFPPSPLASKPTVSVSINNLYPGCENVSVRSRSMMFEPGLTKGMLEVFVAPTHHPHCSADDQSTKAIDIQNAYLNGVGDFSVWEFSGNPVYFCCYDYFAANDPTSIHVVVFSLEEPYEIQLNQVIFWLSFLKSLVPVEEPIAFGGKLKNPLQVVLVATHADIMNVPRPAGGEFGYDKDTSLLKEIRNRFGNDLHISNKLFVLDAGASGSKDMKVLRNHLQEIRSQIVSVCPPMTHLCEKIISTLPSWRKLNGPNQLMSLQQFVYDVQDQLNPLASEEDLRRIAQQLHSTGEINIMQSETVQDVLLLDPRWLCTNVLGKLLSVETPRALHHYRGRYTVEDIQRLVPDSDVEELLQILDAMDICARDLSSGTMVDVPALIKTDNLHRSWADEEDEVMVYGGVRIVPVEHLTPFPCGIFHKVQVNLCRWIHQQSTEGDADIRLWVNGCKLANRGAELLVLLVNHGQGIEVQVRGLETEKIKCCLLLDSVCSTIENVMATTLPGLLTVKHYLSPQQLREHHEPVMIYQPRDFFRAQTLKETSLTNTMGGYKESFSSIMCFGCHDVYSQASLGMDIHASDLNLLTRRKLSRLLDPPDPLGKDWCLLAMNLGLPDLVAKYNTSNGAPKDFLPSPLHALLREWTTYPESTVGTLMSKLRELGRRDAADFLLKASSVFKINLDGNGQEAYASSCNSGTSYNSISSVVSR

PAK7 (human) = PAK7 (human) (UniProt Q9P286)
SLK (human) = SLK (human) (UniProt Q9H2G2)
CDK2 CCNA2 (human) = CDK2 CCNA2 (human) (UniProt P24941+P20248)
MAP3K9 (human) = MAP3K9 (human) (UniProt P80192)
PAK2 (human) = PAK2 (human) (UniProt Q13177)
PRKG2 (human) = PRKG2 (human) (UniProt Q13237)
EPHB2 (human) = EPHB2 (human) (UniProt P29323)
PDGFRA (human) = PDGFRA (human) (UniProt P16234)
CDK3 CCNE1 (human) = CDK3 CCNE1 (human) (UniProt Q00526+P24864)
FLT3 (human) = FLT3 (human) (UniProt P36888)
CDK6 CCND3 (human) = CDK6 CCND3 (human) (UniProt P30281+Q00534)
TBK1 (human) = TBK1 (human) (UniProt Q9UHD2)
TBK1 (human), sequence (Q9UHD2 whole entry, looked up): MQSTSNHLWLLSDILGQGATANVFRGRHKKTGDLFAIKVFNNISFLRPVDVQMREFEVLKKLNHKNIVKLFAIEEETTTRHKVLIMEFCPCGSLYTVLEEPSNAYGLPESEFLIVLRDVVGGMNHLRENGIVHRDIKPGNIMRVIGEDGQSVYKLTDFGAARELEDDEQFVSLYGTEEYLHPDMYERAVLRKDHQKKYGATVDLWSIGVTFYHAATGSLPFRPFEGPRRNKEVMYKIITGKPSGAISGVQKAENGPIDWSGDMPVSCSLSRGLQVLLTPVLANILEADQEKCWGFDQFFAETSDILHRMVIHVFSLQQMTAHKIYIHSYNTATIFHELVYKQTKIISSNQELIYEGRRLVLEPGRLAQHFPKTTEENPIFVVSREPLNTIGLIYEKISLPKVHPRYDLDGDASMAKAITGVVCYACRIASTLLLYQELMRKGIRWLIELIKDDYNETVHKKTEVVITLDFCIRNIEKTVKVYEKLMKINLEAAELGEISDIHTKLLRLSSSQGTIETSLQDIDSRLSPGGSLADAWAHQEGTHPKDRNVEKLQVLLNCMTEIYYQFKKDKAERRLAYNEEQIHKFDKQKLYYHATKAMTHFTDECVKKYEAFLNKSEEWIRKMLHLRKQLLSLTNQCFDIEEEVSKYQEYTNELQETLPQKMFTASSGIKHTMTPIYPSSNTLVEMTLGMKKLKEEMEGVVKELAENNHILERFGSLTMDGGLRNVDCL

JAK2 JH1 JH2 (human) = JAK2 JH1 JH2 (human) (UniProt O60674)
TYRO3 (human) = TYRO3 (human) (UniProt Q06418)

PRKCB2 (human), sequence (P05771 whole entry, looked up): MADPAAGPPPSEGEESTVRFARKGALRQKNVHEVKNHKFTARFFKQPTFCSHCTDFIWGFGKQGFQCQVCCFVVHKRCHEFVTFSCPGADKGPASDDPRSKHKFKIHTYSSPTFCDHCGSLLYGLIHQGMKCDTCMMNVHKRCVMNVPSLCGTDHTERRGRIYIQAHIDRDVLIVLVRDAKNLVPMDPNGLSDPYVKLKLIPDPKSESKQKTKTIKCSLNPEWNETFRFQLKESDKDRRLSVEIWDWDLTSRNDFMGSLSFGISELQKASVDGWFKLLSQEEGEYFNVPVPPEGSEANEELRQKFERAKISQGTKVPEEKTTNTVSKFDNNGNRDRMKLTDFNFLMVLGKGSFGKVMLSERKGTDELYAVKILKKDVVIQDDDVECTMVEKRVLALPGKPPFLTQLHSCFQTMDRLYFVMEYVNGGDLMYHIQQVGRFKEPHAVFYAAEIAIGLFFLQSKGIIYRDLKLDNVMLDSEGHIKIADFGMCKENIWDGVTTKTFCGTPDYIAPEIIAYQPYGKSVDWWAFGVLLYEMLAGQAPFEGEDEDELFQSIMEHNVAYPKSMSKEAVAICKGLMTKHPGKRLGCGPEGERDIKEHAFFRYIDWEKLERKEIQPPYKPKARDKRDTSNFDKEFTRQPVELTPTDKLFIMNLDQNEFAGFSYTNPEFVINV

Q: `O=c1cc(-c2cccc3c2Sc2ccccc2S3)oc(N2CCOCC2)c1` was tested. Which residual activity (STK11 (human)) did it give?
A: The residual activity was 96.5%.

Q: And the residual activity (HCK (human))?
A: The residual activity was 102%.

Q: What about the residual activity (TSSK2 (human)) of the same molecule?
A: Its residual activity is 97.7%.

Q: What about the residual activity (STK10 (human)) of the same molecule?
A: Its residual activity is 97.1%.

Q: And the residual activity (PRKCB2 (human))?
A: The residual activity was 105%.

Q: And the residual activity (TAOK3 (human))?
A: Its residual activity is 115%.

Q: And the residual activity (STK3 (human))?
A: The residual activity was 101%.

Q: What about the residual activity (AKT2 (human)) of the same molecule?
A: Its residual activity is 96%.

Q: And the residual activity (CLK1 (human))?
A: Its residual activity is 103%.

Q: What about the residual activity (SYK (human)) of the same molecule?
A: The residual activity was 106%.

Q: What about the residual activity (DAPK2 (human)) of the same molecule?
A: Its residual activity is 98.8%.

Q: And the residual activity (PRKX (human))?
A: Its residual activity is 113%.

Q: And the residual activity (TGFBR2 (human))?
A: The residual activity was 93.4%.

Q: And the residual activity (TGFBR1 (human))?
A: Its residual activity is 98%.

Q: And the residual activity (MKNK2 (human))?
A: The residual activity was 117%.

Q: And the residual activity (CHEK1 (human))?
A: Its residual activity is 109%.

Q: And the residual activity (INSRR (human))?
A: The residual activity was 98.7%.

Q: And the residual activity (PRKACA (human))?
A: Its residual activity is 99.6%.

Q: And the residual activity (CAMK2A (human))?
A: Its residual activity is 100%.

Q: What about the residual activity (IKBKB (human)) of the same molecule?
A: Its residual activity is 101%.

Q: And the residual activity (ROCK1 (human))?
A: The residual activity was 101%.

Q: And the residual activity (CDK4 CCND1 (human))?
A: Its residual activity is 112%.

Q: What about the residual activity (IRAK4 (human)) of the same molecule?
A: Its residual activity is 160%.

Q: What about the residual activity (CAMK2B (human)) of the same molecule?
A: Its residual activity is 106%.

Q: And the residual activity (CAMK1G (human))?
A: Its residual activity is 99.4%.

Q: What about the residual activity (CAMK2D (human)) of the same molecule?
A: The residual activity was 104%.

Q: And the residual activity (PRKCA (human))?
A: Its residual activity is 80.3%.

Q: And the residual activity (DAPK1 (human))?
A: Its residual activity is 82.7%.

Q: And the residual activity (PAK7 (human))?
A: The residual activity was 98.8%.

Q: And the residual activity (SLK (human))?
A: Its residual activity is 93.5%.

Q: What about the residual activity (CDK2 CCNA2 (human)) of the same molecule?
A: Its residual activity is 101%.

Q: What about the residual activity (MAP3K9 (human)) of the same molecule?
A: The residual activity was 95.5%.

Q: What about the residual activity (PAK2 (human)) of the same molecule?
A: Its residual activity is 100%.

Q: And the residual activity (PRKG2 (human))?
A: The residual activity was 92.2%.

Q: And the residual activity (EPHB2 (human))?
A: Its residual activity is 102%.

Q: And the residual activity (PDGFRA (human))?
A: Its residual activity is 101%.

Q: What about the residual activity (CDK3 CCNE1 (human)) of the same molecule?
A: Its residual activity is 101%.

Q: And the residual activity (FLT3 (human))?
A: The residual activity was 98.4%.

Q: What about the residual activity (CDK6 CCND3 (human)) of the same molecule?
A: Its residual activity is 106%.

Q: And the residual activity (TBK1 (human))?
A: The residual activity was 88.5%.

Q: And the residual activity (JAK2 JH1 JH2 (human))?
A: Its residual activity is 105%.

Q: And the residual activity (TYRO3 (human))?
A: The residual activity was 105%.

Q: Which results are given for `Nc1n[nH]c2nnc(-c3c(-c4ccccc4)nn4ccccc34)cc12`?
A: residual activity (STK11 (human)): 91.8%; residual activity (HCK (human)): 91.1%; residual activity (TSSK2 (human)): 104%; residual activity (STK10 (human)): 70.9%; residual activity (PRKCB2 (human)): 99.7%; residual activity (TAOK3 (human)): 101%; residual activity (STK3 (human)): 102%; residual activity (AKT2 (human)): 97.5%; residual activity (CLK1 (human)): 108%; residual activity (SYK (human)): 97.4%; residual activity (DAPK2 (human)): 103%; residual activity (PRKX (human)): 101%; residual activity (TGFBR2 (human)): 112%; residual activity (TGFBR1 (human)): 96.1%; residual activity (MKNK2 (human)): 98.3%; residual activity (CHEK1 (human)): 103%; residual activity (INSRR (human)): 95.7%; residual activity (PRKACA (human)): 97.7%; residual activity (CAMK2A (human)): 102%; residual activity (IKBKB (human)): 115%; residual activity (ROCK1 (human)): 100%; residual activity (CDK4 CCND1 (human)): 89.2%; residual activity (IRAK4 (human)): 99.7%; residual activity (CAMK2B (human)): 102%; residual activity (CAMK1G (human)): 99.2%; residual activity (CAMK2D (human)): 96.5%; residual activity (PRKCA (human)): 87.2%; residual activity (DAPK1 (human)): 95.9%; residual activity (PAK7 (human)): 98.2%; residual activity (SLK (human)): 94%; residual activity (CDK2 CCNA2 (human)): 92.9%; residual activity (MAP3K9 (human)): 99.9%; residual activity (PAK2 (human)): 100%; residual activity (PRKG2 (human)): 104%; residual activity (EPHB2 (human)): 93.1%; residual activity (PDGFRA (human)): 99.7%; residual activity (CDK3 CCNE1 (human)): 96.8%; residual activity (FLT3 (human)): 63.5%; residual activity (CDK6 CCND3 (human)): 90.4%; residual activity (TBK1 (human)): 100%; residual activity (JAK2 JH1 JH2 (human)): 97.1%; residual activity (TYRO3 (human)): 97.6%

Q: With `O=C(NC(NC(=S)Nc1ccc(F)c([N+](=O)[O-])c1)C(Cl)(Cl)Cl)C(c1ccccc1)c1ccccc1` (stereo unspecified) as the molecule, how does the residual activity (STK11 (human)) read?
A: Its residual activity is 94.2%.

Q: And the residual activity (HCK (human))?
A: The residual activity was 107%.

Q: And the residual activity (TSSK2 (human))?
A: Its residual activity is 92.7%.

Q: What about the residual activity (STK10 (human)) of the same molecule?
A: The residual activity was 108%.

Q: And the residual activity (PRKCB2 (human))?
A: The residual activity was 107%.

Q: What about the residual activity (TAOK3 (human)) of the same molecule?
A: The residual activity was 121%.

Q: What about the residual activity (STK3 (human)) of the same molecule?
A: Its residual activity is 107%.

Q: And the residual activity (AKT2 (human))?
A: Its residual activity is 91.6%.

Q: And the residual activity (CLK1 (human))?
A: The residual activity was 106%.

Q: And the residual activity (SYK (human))?
A: The residual activity was 104%.

Q: And the residual activity (DAPK2 (human))?
A: The residual activity was 103%.

Q: And the residual activity (PRKX (human))?
A: The residual activity was 106%.

Q: And the residual activity (TGFBR2 (human))?
A: Its residual activity is 91.6%.

Q: What about the residual activity (TGFBR1 (human)) of the same molecule?
A: The residual activity was 92.6%.

Q: What about the residual activity (MKNK2 (human)) of the same molecule?
A: Its residual activity is 135%.

Q: What about the residual activity (CHEK1 (human)) of the same molecule?
A: Its residual activity is 100%.

Q: What about the residual activity (INSRR (human)) of the same molecule?
A: The residual activity was 93.7%.

Q: What about the residual activity (PRKACA (human)) of the same molecule?
A: Its residual activity is 102%.

Q: And the residual activity (CAMK2A (human))?
A: The residual activity was 96%.

Q: And the residual activity (IKBKB (human))?
A: The residual activity was 102%.

Q: What about the residual activity (ROCK1 (human)) of the same molecule?
A: The residual activity was 99.8%.

Q: And the residual activity (CDK4 CCND1 (human))?
A: The residual activity was 116%.

Q: What about the residual activity (IRAK4 (human)) of the same molecule?
A: Its residual activity is 191%.

Q: And the residual activity (CAMK2B (human))?
A: The residual activity was 104%.

Q: What about the residual activity (CAMK1G (human)) of the same molecule?
A: Its residual activity is 102%.

Q: And the residual activity (CAMK2D (human))?
A: The residual activity was 102%.

Q: What about the residual activity (PRKCA (human)) of the same molecule?
A: Its residual activity is 73.1%.

Q: And the residual activity (DAPK1 (human))?
A: The residual activity was 75.1%.

Q: What about the residual activity (PAK7 (human)) of the same molecule?
A: Its residual activity is 104%.

Q: And the residual activity (SLK (human))?
A: The residual activity was 95.2%.

Q: And the residual activity (CDK2 CCNA2 (human))?
A: The residual activity was 102%.

Q: What about the residual activity (MAP3K9 (human)) of the same molecule?
A: Its residual activity is 94%.

Q: And the residual activity (PAK2 (human))?
A: Its residual activity is 100%.

Q: And the residual activity (PRKG2 (human))?
A: Its residual activity is 96.6%.

Q: And the residual activity (EPHB2 (human))?
A: Its residual activity is 101%.

Q: What about the residual activity (PDGFRA (human)) of the same molecule?
A: Its residual activity is 100%.

Q: What about the residual activity (CDK3 CCNE1 (human)) of the same molecule?
A: Its residual activity is 105%.

Q: And the residual activity (FLT3 (human))?
A: The residual activity was 99.3%.

Q: What about the residual activity (CDK6 CCND3 (human)) of the same molecule?
A: Its residual activity is 99.3%.

Q: What about the residual activity (TBK1 (human)) of the same molecule?
A: Its residual activity is 98.7%.

Q: And the residual activity (JAK2 JH1 JH2 (human))?
A: Its residual activity is 99.9%.

Q: What about the residual activity (TYRO3 (human)) of the same molecule?
A: Its residual activity is 108%.
